Source: patent US20060293343A1, “Pyrimidine derivatives” (Asahi Kasei Pharma Corporation, priority 2005, published 2006)

test system: TNF-α production induced by LPS; assay: Inhibitory action of TNF-α production (in vivo) induced by LPS using mouse; conditions: C3H/He mouse; orally administered 60 minutes before LPS 10 μg intraperitoneally; plasma TNF-α 90 minutes after LPS; read-out: ED50 (mg/kg), suppression action of TNF-α production
Procedure: C3H/He mouse (manufactured by Japan SLC Co., male) was used as a test animal. A desired concentration of the test sample was suspended in 0.5% methyl cellulose solution. The weight of the mouse was measured, and the test compound solution was orally administered at a dosage of 10 mL/kg while only 0.5% methyl cellulose was administered to the reference group. One group contained 5 to 7 mice. LPS was dissolved in physiological saline, and 10 μg was intraperitoneally administered to each mouse. The test compound was administered first, then LPS was administered 60 minutes thereafter. After 90 minutes, the blood was sampled from the large abdominal vein with the heparin, and a plasma was obtained by centrifugation. The content of TNF-α in the plasma was measured according to the protocol attached to TNF-α ELISA kit (manufactured by R & D System Co.). […] The suppression action of TNF-α production was represented by ED50 (mg/kg). Ex. No. in Table 11 denotes the example No.

`CCc1nc(-c2ccc(C)s2)nc(Nc2ccc(CC(=O)O)cc2)c1CC` [Example 110] and `CCc1nc(-c2ccc(Br)s2)nc(Nc2ccc(CC(=O)O)cc2)c1CC` [Example 221] are within 1.5-fold of each other in ED50: 31 mg/kg for the first, 24 mg/kg for the second.

Compared with `Cc1nc(-c2ccc(Cl)s2)nc(Nc2ccc(CC(=O)O)cc2)c1CO` [Example 386], `CCc1c(C)nc(-c2ccc(Cl)s2)nc1Nc1ccc(CC(=O)O)cc1` [Example 253] is 3.6-fold lower in ED50: 50 mg/kg for the first, 14 mg/kg for the second.

`CCc1nc(-c2ccc(Cl)s2)nc(Nc2ccc(CC(=O)O)cc2)c1CC` [Example 289] and `CCc1nc(-c2ccc(SC)s2)nc(Nc2ccc(CC(=O)O)cc2)c1CC` [Example 128] are within 1.5-fold of each other in ED50: 18 mg/kg for the first, 24 mg/kg for the second.

`CCc1c(C)nc(-c2ccc(C)s2)nc1Nc1ccc(CC(=O)O)cc1` [Example 205] and `CCc1c(C)nc(-c2ccc(F)s2)nc1Nc1ccc(CC(=O)O)cc1` [Example 373] are within 1.5-fold of each other in ED50: 21 mg/kg for the first, 19 mg/kg for the second.

First: CCc1c(C)nc(-c2cccs2)nc1Nc1ccc(CC(=O)NO)cc1 [Example 116]
Second: CCc1c(C)nc(-c2cccs2)nc1Nc1ccc(CC(=O)O)cc1F [Example 344]
The ED50 of the first is 2.2-fold lower: 12 mg/kg for the first, 27 mg/kg for the second.

Compared with `CCc1nc(-c2ccc(Br)s2)nc(Nc2ccc(C(=O)O)cc2)c1CC` [Example 220], `CCc1nc(-c2cc(C)c(Br)s2)nc(Nc2ccc(C(=O)O)cc2)c1CC` [Example 238] is 2-fold lower in ED50: 41 mg/kg for the first, 20 mg/kg for the second.

`CCc1nc(-c2cc(C)c(Br)s2)nc(Nc2ccc(CC(=O)O)cc2)c1CC` [Example 239] and `CCc1nc(-c2cc(C)c(I)s2)nc(Nc2ccc(CC(=O)O)cc2)c1CC` [Example 293] are within 1.5-fold of each other in ED50: 22 mg/kg for the first, 18 mg/kg for the second.

First: C=CCc1c(CC)nc(-c2ccoc2)nc1Nc1ccc(C(=O)O)cc1 [Example 103]
Second: CCc1nc(-c2ccoc2)nc(Nc2ccc(C(=O)O)cc2)c1CC [Example 86]
The ED50 of the first is 4.6-fold higher: 37 mg/kg for the first, 8 mg/kg for the second.

Compared with `CCc1c(C)nc(-c2ccc(F)s2)nc1Nc1ccc(CC(=O)O)cc1F` [Example 376], `CCc1c(C)nc(-c2ccc(I)s2)nc1Nc1ccc(CC(=O)O)cc1F` [Example 345] is 3.1-fold higher in ED50: 12 mg/kg for the first, 37 mg/kg for the second.

`C=CCc1c(C)nc(-c2ccc(Br)s2)nc1Nc1ccc(CC(=O)O)cc1` [Example 241] and `C=CCc1c(C)nc(-c2ccc(Cl)s2)nc1Nc1ccc(CC(=O)O)cc1` [Example 254] are within 1.5-fold of each other in ED50: 39 mg/kg for the first, 38 mg/kg for the second.

`C=CCc1c(C)nc(-c2cc(C)c(Br)s2)nc1Nc1ccc(CC(=O)O)cc1` [Example 274] and `CCc1c(C)nc(-c2cc(C)c(I)s2)nc1Nc1ccc(CC(=O)O)cc1` [Example 292] are the same in ED50: 25 mg/kg for the first, 25 mg/kg for the second.

test system: TNF-α production in LPS-stimulated mouse mononuclear cells; assay: Inhibitory action of TNF-α production using mouse mononuclear cells (in vitro); assay type: cell-based; conditions: mouse mononuclear cells from peripheral blood of C3H/He mouse; LPS 5 μg/mL, 21 hours; TNF-α ELISA; read-out: IC50 (nM), suppression action of TNF-α production
Procedure: Mouse mononuclear cells were isolated from the peripheral blood of C3H/He mouse (manufactured by Japan SLC Co., male), and were suspended in a culture medium (trade name RPMI 1640 manufactured by Gibco Co.) containing 10% bovine serum. The cells were seeded in a 96 well plate as 50,000 cells/well, the test compound was added at a desired concentration, and the plate was allowed to stand in an incubator containing 5% CO2 at .37° C. for 15 minutes. LPS was added thereafter at a final concentration of 5 μg/mL, and the plate was allowed to stand in the incubator for 21 hours.
The culture medium containing produced TNF-α was retrieved, and the amount of TNF-α was measured according to the protocol attached to mouse TNF-α ELISA kit (manufactured by R & D Systems Co.). […] The suppression action of TNF-α was expressed-by […] (nM). Ex. No. in Table 9 denotes the example No.

Compared with `CCc1c(C)nc(-c2cccs2)nc1Nc1ccc(CC(=O)Nc2ccccc2OC)cc1` [Example 113], `CCc1c(C)nc(-c2cccs2)nc1Nc1ccc(CC(=O)NO)cc1` [Example 116] is 3.4-fold lower in IC50: 34 nM for the first, 10 nM for the second. The second is the more potent here.

`CCc1nc(-c2ccco2)nc(Nc2ccc(C(=O)O)cc2)c1CC` [Example 186] and `CCc1nc(-c2ccoc2)nc(Nc2ccc(C(=O)O)cc2)c1CC` [Example 86] are within 1.5-fold of each other in IC50: 80 nM for the first, 67 nM for the second.

First: CCc1nc(-c2ccc(OC)s2)nc(Nc2ccc(C(=O)O)cc2)c1CC [Example 80]
Second: C=CCc1c(CC)nc(-c2ccc(OC)s2)nc1Nc1ccc(C(=O)O)cc1 [Example 54]
The IC50 of the first is 3.3-fold lower: 73 nM for the first, 239 nM for the second.

`CCc1nc(-c2ccc(Br)s2)nc(Nc2ccc(CC(=O)O)cc2)c1CC` [Example 221] and `CCc1nc(-c2ccc(Br)s2)nc(Nc2ccc(C(=O)O)cc2)c1CC` [Example 220] are within 1.5-fold of each other in IC50: 53 nM for the first, 59 nM for the second.

`C=CCc1c(CCC)nc(-c2ccsc2)nc1Nc1ccc(C(=O)O)cc1` [Example 68] and `CCCc1nc(-c2ccsc2)nc(Nc2ccc3cc(C(=O)O)ccc3c2)c1CC` [Example 73] are within 1.5-fold of each other in IC50: 247 nM for the first, 211 nM for the second.

First: CCc1c(C)nc(-c2ccc(OC)s2)nc1Nc1ccc(CC(=O)NO)cc1 [Example 203]
Second: CCc1c(C)nc(-c2ccc(Cl)s2)nc1Nc1ccc(CC(=O)O)cc1 [Example 253]
The IC50 of the first is 5.9-fold lower: 86 nM for the first, 504 nM for the second. The first is the more potent here.

`CCc1nc(-c2cc(C)c(C)o2)nc(Nc2ccc3cc(C(=O)O)ccc3c2)c1CC` [Example 157] and `CCc1nc(-c2ccc(SC)s2)nc(Nc2ccc3cc(C(=O)O)ccc3c2)c1CC` [Example 129] are within 1.5-fold of each other in IC50: 80 nM for the first, 85 nM for the second.

Going from `CCc1c(C)nc(-c2ccc(Br)s2)nc1Nc1ccc(CC(N)=O)cc1` [Example 181] to `CCc1c(C)nc(-c2ccc(C(=O)OC)s2)nc1Nc1ccc(C(=O)O)cc1` [Example 50], the IC50 rises from 57 nM to 249 nM (4.4-fold). The first is the more potent here.

`CCc1nc(-c2ccc(Cc3ccccc3)s2)nc(Nc2ccc3cc(C(=O)O)ccc3c2)c1CC` [Example 234] showed an IC50 of 48 nM.
